Measured values reported in US20070142227A1, “Systemic inducer composition for plants” (priority 2003, published 2007).

Experiments:
[1] = system: infection of leaves; assay type: in vivo; details: lettuce every 10 days, foliar; chemical compound 25 grams, extract 5 grams
[2] = system: infected leaves and fruits; assay type: in vivo; details: strawberry every 10 days, foliar; chemical compound 25 grams, extract 5 grams
[3] = system: leaf infection; assay type: in vivo, tomato; details: tomatoes every week, foliar; chemical compound 25 grams, extract 5 grams
[4] = system: mildew; test: Specific microorganism extracts and chemical compounds, grape mildew (Table II); assay type: in vivo, grapes
[5] = system: sigatoka; test: Specific microorganism extracts and chemical compounds, banana sigatoka (Table II); assay type: in vivo
[6] = system: infection of fruits; assay type: in vivo; details: blueberry every 15 days, foliar; chemical compound 25 grams, extract 5 grams
[7] = system: fire blight; test: Specific microorganism extracts and chemical compounds, apple fire blight burn (Table II); assay type: in vivo, apples
[8] = system: early & late blight; assay type: in vivo; details: potatoes 4 times during season, foliar; chemical compound 25 grams, extract 5 grams
[9] = system: Foliar Infections; assay type: in vivo; details: strawberry plant, chemical compound 1.5 kg per acre, extract 5 grams per acre, once a week
[10] = system: nematode; test: Resistance induction in strawberry plant, root infection (Table I A); details: in vivo
[11] = system: Fire Blight; test: Resistance induction in apple trees against fire blight (Table I B); details: in vivo
[12] = system: foliar infection; assay type: in vivo; details: tomato plants, chemical compound 1.5 kg per acre, extract 5 grams per acre, every 10 days
[13] = system: phytopthora; assay type: in vivo; details: tomato plants, chemical compound 1.5 kg per acre, extract 5 grams per acre, every 10 days
[14] = system: nematodes; test: Resistance induction in tomato plants, nematodes (Table I C); details: in vivo
[15] = system: Black Sigatoka; test: Resistance induction in bananas against Black Sigatoka (Table I D); design: species or system banana; details: in vivo
[16] = system: Nematodes; test: Resistance induction in bananas against nematodes (Table I D); design: species or system banana; details: in vivo
[17] = Growth effect, citrus (Table III); assay type: in vivo; details: foliar, 4 times in 1 year, chemical compound 3 kg, extract 5 grams
Method: (§1) These chemical compounds were tested at rates 0.25 to 3 kg per acre of citrus, strawberries, tomatoes and bananas by themselves to measure (A) fertilizer effect on foliar uptake, (B) growth effect, (C) resistance induction effect. These compounds were then combined with extracts of pseudomonas, subtilis species and actinomyces and applied to the similar set of plants and measured for A, B, and C as above. These extracts were also applied to a similar set of plants and measured for A, B, and C as above.

[18] = system: die back; test: Induction of resistance, citrus die back (Table III); assay type: in vivo; details: foliar, 4 times in 1 year, chemical compound 3 kg, extract 5 grams
Method: as §1

[19] = system: phytopthora; test: Induction of resistance, citrus phytopthora in roots (Table III); assay type: in vivo; details: foliar, 4 times in 1 year, chemical compound 3 kg, extract 5 grams
Method: as §1

[20] = Growth effect, strawberry (Table III); assay type: in vivo; details: every 10 days, chemical compound 3 kg, extract 5 grams
Method: as §1

[21] = system: leaf disease; test: Induction of resistance, strawberry leaf disease (Table III); assay type: in vivo; details: every 10 days, chemical compound 3 kg, extract 5 grams
Method: as §1

[22] = Growth effect, tomatoes (Table III); assay type: in vivo; details: every 10 days, foliar, chemical compound 3 kg, extract 5 grams
Method: as §1

[23] = system: leaf disease, botrylis; test: Induction of resistance, tomato leaf infection (Table III); assay type: in vivo; details: tomatoes, every 10 days, foliar; chemical compound 3 kg, extract 5 grams
Method: as §1

[24] = system: phytopthora; test: Induction of resistance, tomato phytopthora in roots (Table III); assay type: in vivo; details: tomatoes, every 10 days, foliar; chemical compound 3 kg, extract 5 grams
Method: as §1

[25] = Growth effect, bananas (Table III); assay type: in vivo; details: every week, foliar, for 6 months, chemical compound 3 kg, extract 5 grams
Method: as §1

[26] = system: Black Sigatoka; test: Induction of resistance, banana Sigatoka (Table III); assay type: in vivo; details: bananas, every week, foliar, for 6 months; chemical compound 3 kg, extract 5 grams
Method: as §1

[27] = bananas every week for 6 months, foliar, chemical compound 25 grams alone

Compound | infection of leaves [1] | infected leaves [2] | infected leaves / leaf infection [3] | infection of fruits [6] | infected leaves (early & late blight) [8] | Results in Foliar Infections [9] | Results in Root Infection (nematode infection) [10] | Results On Development of Fire Blight [11] | Results In Foliar & Root Infections: foliar infection [12] | Results In Foliar & Root Infections: phytopthora [13] | Results In Foliar & Root Infections: nematode [14] | Results On Black Sigatoka: Leaves at Flowering [15] | Results On Nematode Infection [16] | other results
O=C([O-])CC(O)(CC(=O)[O-])C(=O)[O-].O=C([O-])CC(O)(CC(=O)[O-])C(=O)[O-].[Ca+2].[Ca+2].[Ca+2] [calcium citrate] | 90% infection | 80% infection | 85% infection | 30% infection of fruits | 25% leaf infection | – | – | – | – | – | – | – | – | mildew ([4]; in vivo): 55% mildew; infection (sigatoka, leaves) ([5]; in vivo): 85% infection-all leaves except youngest 3; infection-all leaves except youngest (number of youngest leaves) ([5]; in vivo): 85% infection-all leaves except youngest 3; fire blight burn (leaves) ([7]; in vivo): 20% fire blight burn
O=[N+]([O-])[O-].O=[N+]([O-])[O-].[Ca+2] [calcium nitrate] | – | – | – | – | – | 20% infection | 20% nematode infection | 20% fire blight | 15% foliar infection, 15% phytopthora, 20% nematrode | 15% foliar infection, 15% phytopthora, 20% nematrode | 15% foliar infection, 15% phytopthora, 20% nematrode | 7 Leaves at Flowering, High Nematode infection | 7 Leaves at Flowering, High Nematode infection | –
O=P(O)(O)O [potassium phosphate] | – | – | – | – | – | 20% infection | 20% nematode infection | 18% fire blight | 15% foliar infection, 15% phytopthora, 20% nematrode | 15% foliar infection, 15% phytopthora, 20% nematrode | 15% foliar infection, 15% phytopthora, 20% nematrode | 7 Leaves at Flowering, High Nematode infection | 7 Leaves at Flowering, High Nematode infection | –
potassium phosphite | 85% infection | 85% infection | 100% infection | 35% infection of fruits | 35% leaf infection | – | – | – | – | – | – | – | – | mildew ([4]; grapes every 15 days, foliar, chemical compound 25 grams, extract 5 grams): 70% mildew; infection (sigatoka, leaves) [5, 27]: 90%; infection-all leaves except youngest (number of youngest leaves) [5, 27]: 4; fire blight burn (leaves) ([7]; apples (2 yr old) 10 days post bud break & 1 week later, foliar, chemical compound 25 grams, extract 5 grams): 25% fire blight burn; Growth effect [17]: zero improvement; Induction of Resistance: die back [18]: die back as usual; Induction of Resistance: phytopthora in roots [19]: zero resistance to phytopthora,; Growth effect [20]: no increase; Induction of Resistance: leaf disease, infection [21]: suppression, 25% infection; Growth effect [22]: no increase; Induction of Resistance: leaf infection [23]: 35% leaf infection; Induction of Resistance: phytopthora in roots [24]: phytopthora zero control,; Growth effect [25]: no increase; Induction of Resistance: Sigatoka control, leaves with no symptoms [26]: only 4 youngest leaves
